These results are taken from patent US20040077549A1, “Inhibitors of the E2F-1/cyclin interaction for cancer therapy” (priority 2000, published 2004).

Where two headings read alike, the source gives them in different places. Where a SMILES comes first, the peptide text is derived from it. Bridges are numbered along the chain shown (N, C = ends). Where no end group is shown, it is not given here. [ ]: non-standard residue; d: D form.

The target in test [1] is E2F-1/Cyclin A interaction (Homo sapiens, UniProt P20248). As to the kind of experiment: E2F-1/Cyclin A/cdk2 ELISA. It counts as binding. As to the method: An ELISA was developed to identify antagonists of E2F-1/Cyclin A interaction. This method is based on interactions between three proteins, E2F-1, Cyclin A and cdk2 and is analyzed colorimetrically. This assay was used to determine IC50 values for various synthetic peptides that were used in biological experiments and for SAR studies.
This assay allows determination of IC50 values for various synthetic peptides that were used in biological experiments or for SAR studies.
Nunc Immulon II ELISA plates are coated overnight at 4° C. with 250 μL of […] anti-GST antibody (Pharmacia Biotech) in bicarbonate buffer. Following five washes with wash buffer consisting of 50 mM Tris (pH=7.5), 0.15 M NaCl, and 0.01% Tween-20 (TBST), non-specific sites were blocked for 2 hr at room temperature with 300 μL of assay buffer consisting of 50 mM HEPES (pH=7.5), 0.15 M NaCl, 0.1% Triton X-100, and 5% bovine serum albumin (BSA). Plates were then washed five times in TBST, aspirated dry, and treated with 100 μL of GST-E2F-1 in TBS (25 nM). GST-E2F-1 was incubated at RT for at least 1 hr with non-specific binding (NSB) control wells receiving assay buffer with no protein. Plates were washed five times in TBST and multiple concentrations of test compounds diluted in assay buffer were co-incubated with 5 nM Cyclin A/cdk2 diluted in assay buffer. The Cyclin A/cdk2 complex was freshly prepared by mixing a 1:1 ratio of the two proteins in TBS at 4° C. for 30 min prior to addition to the assay plate. Following incubation for 2 hr at RT, plates were washed five times in TBST, and 100 μL of a 1:500 dilution of a rabbit anti-cdk2 antibody (Santa Cruz) diluted in assay buffer and were added to all wells. Following incubation for at least 1 hr at RT or overnight at 4° C., the plates were washed five times in TBST and 100 μL of a 1:1000 dilution of a HRP-conjugated anti-rabbit IgG antibody (Pierce) were added to all wells. Following a half hour incubation at RT, the plates were washed five times in TBST, aspirated dry, and developed by the addition of 100 μL of a HRP substrate ABTS prepared in sodium citrate buffer (pH=4.2). After 10-15 min, absorbance is read using a microplate reader at 405 nm.

The test system of another test is WI38/VA13 SV40 cells. Particulars: read-out: IC50 growth inhibition; WI38/VA13 SV40, 24 hr, MTS.
For test [2], the system named is MDA-MB-435 cells. As to the kind of experiment: Growth inhibition (MTS assay), MDA-MB-435. It counts as cell-based, Human. The following applies: MDA-MB-435, 24 hr. An excerpt: (§1) Evaluation of Growth Inhibition.
The next test relates to MDA-MB-231 cells. The following applies: read-out: IC50 growth inhibition; MDA-MB-231, 24 hr, MTS.
For test [3], the system named is U2OS cells. Nature of the test: Growth inhibition (MTS assay), U2OS. It counts as cell-based, Human. The following applies: for IC50: 24 hr, MTS; for cell morphology: beginning at about 3 hr post-treatment; for inhibition as measured by the MTS assay: asynchronous culture of U2OS.
From the text: as §1

In another test the test system is A549 cells. As to the kind of experiment: Growth inhibition (MTS assay), A549. It counts as cell-based, Human. Particulars: A549, 24 hr.
From the text: as §1

Test [4] concerns MDA-MB-435 cells. As to the kind of experiment: Uptake and intracellular compartmentalization (fluorescence microscopy), MDA-MB-435. It counts as cell-based, Human. The following applies: MDA-MB-435, after 30 min of incubation. As to the method: (§2) Peptide Treatment and Fluorescence Microscopy. 4×10^4 cells/well were plated on a 48 well plate at 10% FCS and cultured overnight. […] For detection of fluorescein-labeled peptides, cells were rinsed once with PBS (pH=7.3) and visualized using a fluorescence microscope (Axiovert 135 at 320×).
(§3) Uptake and Intracellular Compartmentalization of Tat Peptides. The internalization of the Tat-mt peptide labeled with fluorescein maleimide on the cysteine residue was investigated. The labeled peptide was verified by mass spectrometry and purified by HPLC before use. […] We further repeated the experiments with incubation of the peptide at 30 and 100 μM for 24 hr in osteosarcoma U2OS cells. […] The peptide was tested under the same conditions after direct labeling with fluorescein maleimide. No variation in the amount and localization of the internalized peptide was observed as compared with the Tat-peptide.

The test system of test [5] is U2OS cells. As to the kind of experiment: Uptake and intracellular compartmentalization (fluorescence microscopy), U2OS. The test is classed as cell-based, Human. The following applies: 30 and 100 μM, 24 hr. As to the method: as §2, §3
Another test concerns SW480 cells. The following applies: read-out: IC50 growth inhibition; SW480, 24 hr, MTS.
The subject of another test is HeCat cells. Particulars: read-out: IC50 growth inhibition, 24 hr, MTS.
For a further test, the system named is Rat1 cells. Particulars: read-out: IC50 growth inhibition; Rat1, 24 hr, MTS.
The subject of another test is HCT-116 cells. Particulars: read-out: IC50 growth inhibition; HCT-116, 24 hr, MTS.
The mark [6] stands for this setting: original identified sequences (linear), read-out: IC50.
The mark [7] stands for this setting: linear peptide, read-out: IC50 Linear.
The mark [8] stands for this setting: cyclic peptides, read-out: ELISA IC50.
Where [9] appears, read: cyclized between side-chain amino group of Lys* and carboxyl group of Gly*, read-out: IC50 Cyclic.
The mark [10] stands for this setting: E2F-1/Cyclin A/cdk2 ELISA, read-out: IC50.

Procedure for HCT-116 cells: (§4) MDA-MB-435, U2OS, A549, MDA-MB-231 cells were maintained in DMEM supplemented with 10% FCS. SW480 and HCT-116 were grown in RPMI 1640 supplemented with 10% FCS.
(§5) Evaluation of Growth Inhibition. 3×10^3 cells/well were plated on a 96 well plate at 10% FCS and cultured overnight. The culture medium was discarded, and the cells were washed once with Opti-MEM. The cell monolayers were incubated at 37° C. with peptide solutions at various concentrations for 24 hr. The growth inhibition was evaluated using solutions composed of 3-(4,5-dimethylthiazol-2-yl)-5-(3-carboxymethoxyphenyl)-2-(4-sulfophenyl)-2H-tetrazolium; MTS (from Promega) and phenazine methosulfate; PMS (from Sigma).
Procedure for HeCat cells: as §5
Procedure for MDA-MB-231 cells: as §4, §5
Procedure for Rat1 cells: as §5
Procedure for SW480 cells: as §4, §5
Procedure for WI38/VA13 SV40 cells: as §5

On to SACRNLFG [reference compound], for which the IC50 in [1] (setting [6]) was 0.2 µM.
Take `CC(C)C[C@@H]1NC(=O)[C@@H](NC(=O)[C@H](CCCNC(=N)N)NC(=O)[C@H](CCCCN)NC(=O)[C@H](C)NC(=O)[C@@H]2CCCN2C(=O)CNC(=O)[C@H](CCCNC(=N)N)NC(=O)[C@H](CCCNC(=N)N)NC(=O)[C@H](CCCNC(=N)N)NC(=O)[C@H](CCC(N)=O)NC(=O)[C@H](CCCNC(=N)N)NC(=O)[C@H](CCCNC(=N)N)NC(=O)[C@H](CCCCN)NC(=O)[C@H](CCCCN)NC(=O)[C@H](CCCNC(=N)N)NC(=O)CNC(=O)[C@@H](N)Cc2ccc(O)cc2)CCCCNC(=O)CNC(=O)[C@H](Cc2ccccc2)NC1=O` [Tat-cyclic, YGRKKRRQRRRG PAKR(KLFG)] (H-YGRKKRRQRRRGPAKRKLFG; lactam 17-C): the 50% inhibitory concentration (IC50) in the test on WI38/VA13 SV40 cells is 6 to 7 µM; in test [1] it was 0.1 to 1 µM; in the test on MDA-MB-435 cells [2], 6 to 7 µM; with MDA-MB-231 cells, 6 to 7 µM; in the test with U2OS cells [3] (U2OS), 6 to 7 µM; in the test on A549 cells, 26 to 46 µM. Moreover, the cell morphology result with U2OS cells [3] (U2OS) is on record as “rounded morphology”. Besides, in the test on U2OS cells [3], the “inhibition as measured by the MTS assay” value is “dose-dependent inhibition”.
Consider “PAKRKLFG [Pro-Ala-Lys-Arg-Lys-Leu-Phe-GIy]”, for which the IC50 in test [1] (setting [7]) and in [1] (setting [6]) was 0.1 µM each time.
“Ac-AKRKLFG [Ac-Ala-Lys-Arg-Lys-*Leu-Phe-Gly*]”: the IC50 in [1] (setting [7]) is 0.2 µM.
Same read-out and setting: the result for “Ac-KRKLFG [Ac-Lys-Arg-Lys-*Leu-Phe-Gly* (Linear), Ac-Lys-Arg-Lys-*Leu-Phe-Gly*]” reads 1 µM.
As for “FluMalCXYGRKKRRQRRRG PVKARLDL [FITC-Tat-mt]”, the intracellular localization entry with MDA-MB-435 cells [4] is given as “mainly recovered from the nucleus with a nucleolar accumulation”. The “penetration to the nucleus” value with U2OS cells [5] worked out at 100%.
In the case of YGRKKRRQRRRG [Tat, reference compound], in the test with U2OS cells [3] (U2OS), the “failed to cause any morphological changes and MTS reading up to” value was more than 300 μM.
Regarding `CC(=O)N[C@@H](C)C(=O)N[C@@H](CCCCN)C(=O)N[C@@H](CCCNC(=N)N)C(=O)N[C@H]1CCCCNC(=O)CNC(=O)[C@H](Cc2ccccc2)NC(=O)[C@H](CC(C)C)NC1=O` [compound 3, Ac-Ala-Lys-Arg-(Lys-Leu-Phe-Gly)] (Ac-AKRKLFG; lactam 4-C), the IC50 in test [1] (setting [8]) and in [1] (setting [9]) was 0.01 µM in each case.
Turning to `CC(C)C[C@@H]1NC(=O)[C@@H](NC(=O)[C@H](CCCNC(=N)N)NC(=O)[C@H](CCCCN)NC(=O)[C@H](C)NC(=O)[C@H]2CCCN2)CCCCNC(=O)CNC(=O)[C@H](Cc2ccccc2)NC1=O` [compound 2, Pro-Ala-Lys-Arg-(Lys-Leu-Phe-Gly)] (H-[dP]AKRKLFG; lactam 5-C), the IC50 in test [1] (setting [10]), in test [1] (setting [8]) and in test [1] (setting [9]) was 0.001 µM in each case.
Regarding `CC(=O)N[C@@H](CCCCN)C(=O)N[C@@H](CCCNC(=N)N)C(=O)N[C@H]1CCCCNC(=O)CNC(=O)[C@H](Cc2ccccc2)NC(=O)[C@H](CC(C)C)NC1=O` [compound 4, Ac-Lys-Arg-(Lys-Leu-Phe-Gly)] (Ac-KRKLFG; lactam 3-C), the IC50 in [1] (setting [10]), in [1] (setting [8]) and in [1] (setting [9]) was 0.02 µM in each case.
On to `CC(=O)N[C@@H](CCCN=C(N)N)C(=O)N[C@@H](CCCCN)C(=O)N[C@@H](CC(C)C)C(=O)N[C@@H](Cc1ccccc1)C(=O)NCC(=O)O` [Ac-Arg-Lys-*Leu-Phe-Gly* (Linear), Ac-Arg-Lys-*Leu-Phe-Gly*], for which the half-inhibitory concentration (IC50) in test [1] (setting [7]) stood at 30 µM.
Consider “YGRKKRRQRRRGPVKRRLDL [Tat-linear, YGRKKRRQRRRG PVKRRLDL]”, for which the half-maximal inhibitory concentration (IC50) is 0.1 to 1 µM in [1]; 48 to 50 µM in the test on MDA-MB-435 cells [2]; 26 µM in the test on SW480 cells; more than 100 µM with HeCat cells; 28 to 40 µM in the test on U2OS cells [3] (U2OS); more than 100 µM with Rat1 cells. Also, the IC50 in the test on HCT-116 cells stood at 80 µM. In addition, the cell morphology entry in the test on U2OS cells [3] (U2OS) was “rounded morphology”. Besides, in the test on U2OS cells [3], the “inhibition as measured by the MTS assay” value is listed as “dose-dependent inhibition”.
